Values quoted from earlier work as cited in patent publication US5543414A, “Achiral amino acid acyl esters of ganciclovir and its derivatives” (priority 1994, dated 1996).
Counter-ions that a name gives are not always drawn. Like-named read-outs stand apart in the source and are kept apart here.

Key:
[1] = not given; remark: listed apart in the source
[2] = in vivo
[3] = tested on: epithelial and stromal herpes simplex keratitis and associated iritis; details: glycine ester: 1% eye drop formulation, rabbits; acyclovir: ointment
[4] = tested on: viruses of the herpes family; details: e.g. herpes simplex, cytomegalovirus
[5] = not given; remark: listed apart in the source
[6] = oral administration
[7] = not given; remark: listed apart in the source
[8] = tested on: herpes simplex virus type 1 and type 2 strains; details: primary rabbit kidney cell cultures
[9] = not given; remark: listed apart in the source

For CC[C@H](N)C(=O)OCCOCn1cnc2c(=O)[nH]c(N)nc21, the “amounts of the parent drug in the urine compared with acyclovir” value (“amounts … compared with acyclovir” below) (rat, in vivo) is listed as “greater amounts of the parent drug in the urine than acyclovir itself”.

In the case of CC(N)C(=O)OCCOCn1cnc2c(=O)[nH]c(N)nc21 (racemic) [D,L-alanyl], the “amounts … compared with acyclovir” value (rat, in vivo) is listed as “greater amounts of the parent drug in the urine than acyclovir itself”.

In the case of CC(C)C(N)C(=O)OCCOCn1cnc2c(=O)nc(N)[nH]c21 (racemic) [D,L-valyl], the “amounts … compared with acyclovir” value (rat, in vivo) is listed as “greater amounts of the parent drug in the urine than acyclovir itself”.

In the case of CCC(C)C(N)C(=O)OCCOCn1cnc2c(=O)[nH]c(N)nc21 (racemic) [DL-isoleucyl], the “amounts … compared with acyclovir” value (rats) is given as “greater amounts of the parent drug in the urine than acyclovir itself”.

For Nc1ncc2ncn(COCCO)c2n1 [6-deoxy-acyclovir], the “absorption and plasma levels of the parent drugs” value ([1]; oral administration, rats) is listed as “efficient absorption from the gastro-intestinal tract and high plasma levels of the parent drugs” and the “conversion to parent drug” value [2] is listed as “readily converted in vivo by the action of enzymes”.

For Nc1ncc2ncn(COC(CO)CO)c2n1 [6-deoxy-ganciclovir], the “absorption and plasma levels of the parent drugs” value ([1]; rat, in vivo, po) is listed as “efficient absorption from the gastro-intestinal tract and high plasma levels of the parent drugs” and the “conversion to parent drug” value [2] is listed as “readily converted in vivo by the action of enzymes”.

For C[C@H](N)C(=O)OCCOCn1cnc2c(=O)[nH]c(N)nc21 [L-alanyl], the “amounts … compared with acyclovir” value (rat, in vivo) is listed as “greater amounts of the parent drug in the urine than acyclovir itself”.

In the case of CC[C@H](C)[C@H](N)C(=O)OCCOCn1cnc2c(=O)[nH]c(N)nc21 [L-isoleucyl], the “amounts … compared with acyclovir” value (rat, in vivo) is given as “greater amounts of the parent drug in the urine than acyclovir itself”.

In the case of CSCC[C@H](N)C(=O)OCCOCn1cnc2c(=O)[nH]c(N)nc21 [L-methionyl], the “amounts … compared with acyclovir” value (rat, in vivo) is listed as “greater amounts of the parent drug in the urine than acyclovir itself”.

For Nc1nc2c(ncn2COCCOC(=O)[C@@H]2CCCN2)c(=O)[nH]1 [L-prolyl ester], the “amounts … compared with acyclovir” value (rat, in vivo) is given as “greater amounts of the parent drug in the urine than acyclovir itself”.

In the case of CC(C)[C@H](N)C(=O)OCCOCn1cnc2c(=O)[nH]c(N)nc21 [L-valyl ester of acyclovir], the “amounts … compared with acyclovir” value (rats) is given as “greater amounts of the parent drug in the urine than acyclovir itself” and the “ranking as prodrug of acyclovir” value (rats) is given as “the best prodrug of the esters investigated”.

In the case of Nc1nc2c(ncn2COCCO)c(=O)[nH]1 [acyclovir, 2-(2-amino-1,6-dihydro-6-oxo-1,6-dihydro-purin-9-yl)methoxy-ethanol], the “efficacy in topical treatment of herpes simplex keratitis and iritis” value [3] is given as “hardly effective in stromal disease or iritis”, the antiviral activity [4] is given as “good activity against herpes viruses such as herpes simplex” and the water solubility [5] is given as “limited solubility in water”. For the same compound, the “urinary recovery of acyclovir” value (rat, in vivo, po) was 19%.

In the case of CCC(=O)OCC(COC(=O)CC)OCn1cnc2c(=O)[nH]c(N)nc21 [dipropionate ester], the “more bioavailable than ganciclovir itself” value [6] is given as “about 42%”.

In the case of Nc1nc2c(ncn2COC(CO)CO)c(=O)[nH]1 [ganciclovir, 9-[(2-hydroxy-1-hydroxymethyl-ethoxy)methyl]-guanine], the antiviral activity [4] is listed as “highly efficacious against viruses of the herpes family, for example, against herpes simplex and cytomegalovirus”.

For NCC(=O)OCCOCn1cnc2c(=O)[nH]c(N)nc21 [glycyl ester of acyclovir], the “solubility greater than the solubility of acyclovir itself” value [7] is listed as “about 30 fold”, the “efficacy in topical treatment of herpes simplex keratitis and iritis” value [3] is listed as “efficacious in the topical treatment of epithelial and stromal herpes simplex keratitis and associated iritis” and the “amounts … compared with acyclovir” value (rats) is listed as “greater amounts of the parent drug in the urine than acyclovir itself”.

For CC(N)C(=O)OCCOCn1cnc2c(=O)[nH]c(N)nc21 (centres unmarked) [hydrochloride salt of the alanyl ester], the “activity against herpes simplex virus type 1 and type 2 compared with acyclovir” value (“activity … compared with acyclovir” below) [8] is given as “almost as active as acyclovir itself”.

For NCC(=O)OCCOCn1cnc2c(=O)[nH]c(N)nc21 [hydrochloride salt of the glycyl ester], the “activity … compared with acyclovir” value [8] is given as “almost as active as acyclovir itself”.

In the case of NCCC(=O)OCCOCn1cnc2c(=O)[nH]c(N)nc21 [hydrochloride salt of the β-alanyl ester], the “activity … compared with acyclovir” value [8] is given as “almost as active as acyclovir itself”.

For CCC(C)C(N)C(=O)OCCOCn1cnc2c(=O)[nH]c(N)nc21 (centres unmarked) [isoleucine ester of acyclovir], the “absorption from the gut compared with other esters and acyclovir” value ([9]; oral administration, preferably in the L-form) is listed as “large increase in absorption from the gut after oral administration”.

For Nc1nc2c(ncn2COCCOC(=O)CCC(=O)O)c(=O)[nH]1 [sodium salt of the succinyl ester], the “activity … compared with acyclovir” value [8] is listed as “almost as active as acyclovir itself”.

In the case of CC(C)[C@H](N)C(=O)OCCOCn1cnc2c(=O)nc(N)[nH]c21 [valine ester of acyclovir], the “absorption from the gut compared with other esters and acyclovir” value ([9]; in vivo, po) is listed as “large increase in absorption from the gut after oral administration”.
